The record followed here is patent US20100179109A1, “RENIN INHIBITORS” (priority 2007, published 2010).

In the test the target is T1, trypsin-activated recombinant human renin (Homo sapiens, UniProt P00797).
T1 sequence (P00797 67-406): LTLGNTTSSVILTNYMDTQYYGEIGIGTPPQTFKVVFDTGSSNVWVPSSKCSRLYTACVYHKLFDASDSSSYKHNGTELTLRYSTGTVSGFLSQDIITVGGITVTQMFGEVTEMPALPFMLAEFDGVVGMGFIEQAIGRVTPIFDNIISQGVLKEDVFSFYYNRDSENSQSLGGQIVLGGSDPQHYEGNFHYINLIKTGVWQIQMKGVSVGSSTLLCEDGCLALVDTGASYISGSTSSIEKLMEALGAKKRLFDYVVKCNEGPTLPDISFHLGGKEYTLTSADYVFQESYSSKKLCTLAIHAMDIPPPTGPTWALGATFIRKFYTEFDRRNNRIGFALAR
In words: In vitro renin assay, fluorescently labeled peptide, LJL Acquest, results as pIC50 (Example 22). The settings on record: found not to demonstrate inhibition at concentrations below the stated value. The class given is biochemical. The procedure: The potency of renin inhibitors was measured using an in vitro renin assay. In this assay, renin-catalyzed proteolysis of a fluorescently labeled peptide converts the peptide from a weakly fluorescent to a strongly fluorescent molecule. The following test protocol was used. Substrate solution (5 μl; 2 μM Arg-Glu-Lys(5-Fam)-Ile-His-Pro-Phe-His-Leu-Val-Ile-His-Thr-Lys(5,6 Tamra)-Arg-CONH2 in 50 mM Hepes, 125 mM NaCl, 0.1% CHAPS, pH 7.4) then trypsin-activated recombinant human renin (Scott, Martin J. et. al. Protein Expression and Purification 2007, 52(1), 104-116; 5 μL; 600 pM renin in 50 mM Hepes, 125 mM NaCl, 0.1% CHAPS, pH 7.4) were added sequentially to a black Greiner low volume 384-well plate (cat.#784076) pre-stamped with a 100 nl DMSO solution of compound at the desired concentration. The assay plates were incubated at room temperature for 2 hours with a cover plate then quenched by the addition of a stop solution (2 μL; 5 μM of Bachem C-3195 in 50 mM Hepes, 125 mM NaCl, 0.1% CHAPS, pH 7.4, 10% DMSO). The assay plates were read on an LJL Acquest using a 485 nm excitation filter, a 530 nm emission filter, and a 505 nm dichroic filter. Compounds were initially prepared in neat DMSO at a concentration of 10 mM. For inhibition curves, compounds were diluted using a three fold serial dilution and tested at 11 concentrations (e.g. 50 μM-0.8 nM or 25 μM-0.42 nM or 2.5 μM to […]). Curves were analyzed using ActivityBase and XLfit, and results were expressed as pIC50 values.

Where only a bound is given, the exact number is not on record here.

For `CNCc1ccc(C(=O)N2CCOC(C(O)(CCCNC(=O)OC)c3cccc(F)c3-c3cc(C)cc(OC)c3)C2)cc1` (centres unmarked), the IC50 (usually the concentration that inhibits the measured activity by half) is not below 50 µM.

In the case of `COCCCCC(O)(c1ccccc1Oc1c(C)cccc1C)C1CCCN(C(=O)c2ccc(CN)cc2)C1` (centres unmarked) [1-(1-{[4-(aminomethyl)phenyl]carbonyl}-3-piperidinyl)-1-{2-[(2,6-dimethylphenyl)oxy]phenyl}-5-(methyloxy)-1-pentanol], the IC50 is not below 50 µM. On to `COCCCCC(O)(c1cccc(Cl)c1Cc1ccccc1C)C1CCCN(C(=O)c2ccc(CN)cc2)C1` (centres unmarked) [1-(1-{[4-(aminomethyl)phenyl]carbonyl}-3-piperidinyl)-1-{3-chloro-2-[(2-methylphenyl)methyl]phenyl}-5-(methyloxy)-1-pentanol], for which the IC50 is not below 50 µM. With `CNCc1ccc(C(=O)N2CCOC(C(O)(CCCCOC)c3cccc(Cl)c3-c3nc(C(C)C)c4ccccc4n3)C2)cc1` (centres unmarked) [1-{3-chloro-2-[4-(1-methylethyl)-2-quinazolinyl]phenyl}-1-[4-({4-[(methylamino)methyl]phenyl}carbonyl)-2-morpholinyl]-5-(methyloxy)-1-pentanol], the IC50 is not below 50 µM. The figure for `CNCc1ccc(C(=O)N2CCCC(C(O)(CCCCOC)c3cccc(Cl)c3Cc3cccc(C)c3)C2)cc1` (centres unmarked) [1-{3-chloro-2-[(3-methylphenyl)methyl]phenyl}-1-[1-({4-[(methylamino)methyl]phenyl}carbonyl)-3-piperidinyl]-5-(methyloxy)-1-pentanol] is not below 50 µM. The result for `CCc1cccc(-c2c(Cl)cccc2C(OCCNC(=O)OC)C2CN(C(=O)c3ccc(CNC)cc3)CCO2)c1` (centres unmarked) [methyl [2-({(6-chloro-3′-ethyl-2-biphenylyl)[4-({4-[(methylamino)methyl]phenyl}carbonyl)-2-morpholinyl]methyl}oxy)ethyl]carbamate] reads not below 50 µM; that for `COC(=O)NCCCC(O)(c1cccc(F)c1-c1cc(C)cc(OC)c1)C1CN(C(=O)C2CCC(N)C2)CCO1` (centres unmarked) [methyl {4-(4-{[3-aminocyclopentyl]carbonyl}-2-morpholinyl)-4-[6-fluoro-3′-methyl-5′-(methyloxy)-2-biphenylyl]-4-hydroxybutyl}carbamate], not below 50 µM; that for `CNCc1ccc(C(=O)N2CCCC(C(O)(CCCNC(=O)OC)c3cccc(F)c3-c3cccs3)C2)cc1` (centres unmarked) [methyl {4-[3-fluoro-2-(2-thienyl)phenyl]-4-hydroxy-4-[1-({4-[(methylamino)methyl]phenyl}carbonyl)-3-piperidinyl]butyl}carbamate], not below 50 µM.
